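Dose response: 5 concentrations. Exposure: 48 h. Format: 96-well plates. Endpoint: linear interpolation; highest concentration if not reached. TGI is the concentration that stops growth completely.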
Tests used:
Experiment in all cases: NCI tumour cell line growth inhibition, 48 h
SK-MEL-2 melanoma = system: SK-MEL-2 melanoma
HL-60(TB) leukemia = system: HL-60(TB) leukemia
HT29 colon = system: HT29 colon
NCI/ADR-RES ovarian = system: NCI/ADR-RES ovarian
SW-620 colon = system: SW-620 colon
MOLT-4 leukemia = system: MOLT-4 leukemia
DMS 273 small cell lung = system: DMS 273 small cell lung
M19-MEL melanoma = system: M19-MEL melanoma
IGROV1 ovarian = system: IGROV1 ovarian
HCT-116 colon = system: HCT-116 colon
OVCAR-4 ovarian = system: OVCAR-4 ovarian
HOP-18 NSCLC = system: HOP-18 NSCLC
SK-MEL-5 melanoma = system: SK-MEL-5 melanoma
K-562 leukemia = system: K-562 leukemia
A498 renal = system: A498 renal
HCT-15 colon = system: HCT-15 colon
SN12K1 renal = system: SN12K1 renal
SF-268 CNS = system: SF-268 CNS
EKVX NSCLC = system: EKVX NSCLC
KM12 colon = system: KM12 colon
CAKI-1 renal = system: CAKI-1 renal
P388/ADR leukemia = system: P388/ADR leukemia
COLO 205 colon = system: COLO 205 colon
P388 leukemia = system: P388 leukemia
MALME-3M melanoma = system: MALME-3M melanoma
UACC-257 melanoma = system: UACC-257 melanoma
OVCAR-3 ovarian = system: OVCAR-3 ovarian
SNB-75 CNS = system: SNB-75 CNS
DLD-1 colon = system: DLD-1 colon
XF 498 CNS = system: XF 498 CNS
SNB-78 CNS = system: SNB-78 CNS
RPMI-8226 leukemia = system: RPMI-8226 leukemia
DMS 114 small cell lung = system: DMS 114 small cell lung
LOX IMVI melanoma = system: LOX IMVI melanoma
A549 NSCLC = system: A549 NSCLC
SF-539 CNS = system: SF-539 CNS
SN12C renal = system: SN12C renal
OVCAR-8 ovarian = system: OVCAR-8 ovarian
HOP-62 NSCLC = system: HOP-62 NSCLC
SF-295 CNS = system: SF-295 CNS
HOP-92 NSCLC = system: HOP-92 NSCLC
OVCAR-5 ovarian = system: OVCAR-5 ovarian
SK-MEL-28 melanoma = system: SK-MEL-28 melanoma
SK-OV-3 ovarian = system: SK-OV-3 ovarian
RXF 393 renal = system: RXF 393 renal
HCC-2998 colon = system: HCC-2998 colon
NCI-H460 lung = system: NCI-H460 lung
U251 CNS = system: U251 CNS
UO-31 renal = system: UO-31 renal
SNB-19 CNS = system: SNB-19 CNS
KM20L2 colon = system: KM20L2 colon
UACC-62 melanoma = system: UACC-62 melanoma
NCI-H522 lung = system: NCI-H522 lung
MCF7 breast = system: MCF7 breast
CCRF-CEM leukemia = system: CCRF-CEM leukemia
NCI-H23 lung = system: NCI-H23 lung

Measured: TGI

CN(C)C(=O)N(CCCl)N=O
> 100 µM: all assays above

— PubChem BioAssay (NCI)
